The source of these data is paper PMC2248166, “Quantitative peptide binding motifs for 19 human and mouse MHC class I molecules derived using positional scanning combinatorial peptide libraries” (Immunome Research, 2008).

Among the targets are HLA B*5801 (Homo sapiens, UniProt P01889, A329T/C349S/D201E/D98Y/E176V/E187L/E204Q/E69T/G107R/I218V/I90N/K202T/L105A/L119I/N104I/N87E/Q89R/Q94S/R106L/R155S/R180L/R86G/S101N/S121R/S35A/S48A/T118I/V127L/V306I/V36M/Y140S/Y91M); HLA B*5802 (Homo sapiens, UniProt P01889, A329T/C349S/D201E/D98Y/E176V/E187L/E204Q/E69T/G107R/I218V/I90N/K202T/L105A/N104I/N87E/Q89R/Q94S/R106L/R155S/R180L/R86G/S101N/S121W/S35A/S48A/V127L/V306I/V36M/Y140S/Y91M); HLA B*5301 (Homo sapiens, UniProt P01889, A329T/A93T/A95T/C349S/D201E/D98Y/E176V/E187L/E204Q/E69T/G107R/I218V/K202T/L105A/L119I/N104I/Q94N/R106L/R155S/R180L/S101N/S121R/S35A/S48A/T118I/V127L/V306I/V36M/Y140S/Y91F); HLA B*3501 (Homo sapiens, UniProt P01889, A329T/A93T/A95T/C349S/D201E/D98Y/E176V/E187L/E204Q/E69T/I218V/K202T/L119I/Q94N/R155S/R180L/S121R/S35A/S48A/T118I/V127L/V306I/V36M/Y140S/Y91F); H-2 K^k (Mus musculus, UniProt P04223); HLA B*5101 (Homo sapiens, UniProt P01889, A329T/A93T/A95T/C349S/D138N/D201E/D98Y/E187L/E204Q/E69T/G107R/I218V/K202T/L105A/L119W/N104I/Q94N/R106L/R155S/R180L/S101N/S121T/S35A/S48A/V306I/V36M/Y195H/Y91F); H-2 D^b (Mus musculus, UniProt P01899); H-2 D^d (Mus musculus, UniProt P01900); HLA A*6802 (Homo sapiens, UniProt P04439, A269V/D140Y/D185E/E176V/E277Q/E87N/F33Y/G231S/I121R/I166T/I218V/L180W/L300P/L318F/N151K/P208A/P217A/Q86R/R138H/R169H/S129P/T345S/V36M); HLA B*5401 (Homo sapiens, UniProt P01889, A329T/C349S/D138N/D201E/E176V/E187T/E204Q/E69G/I76V/K202T/L119W/R155S/R180L/S121T/S35A/S48A/V127L/V306I/V36M/Y140L); H-2 K^d (Mus musculus, UniProt P01902).

Assay type in all cases: binding
The target in the next assay is HLA B*1501 (Homo sapiens, UniProt P01889, A329T/A93T/A95T/C349S/D201E/D98Y/E187L/E204Q/E69M/E70A/K202T/N87E/Q94N/R155S/R180W/S121R/S35A/S48A/V306I/V36M/Y140S/Y91S). Put plainly: biochemical.
For the next assay, the target named is HLA B*0801 (Homo sapiens, UniProt P01889, A93T/A95T/D138N/E176V/E187T/K202T/Q94N/R180D/S35A/V36M/Y33D/Y91F). Put plainly: biochemical.
The next assay has as its target HLA A*3001 (Homo sapiens, UniProt P04439, D140H/D185E/E176W/F33S/G80R/H175R/K168Q/R138E/R41S). As to the kind of experiment: biochemical.
Another assay deals with HLA B*1503 (Homo sapiens, UniProt P01889, A329T/A93T/A95T/C349S/D201E/D98Y/E187L/E204Q/K202T/N87E/Q94N/R155S/R180L/S121R/S35A/V306I/V36M/Y140S/Y91S). As to the kind of experiment: biochemical.
The next assay deals with HLA A*3201 (Homo sapiens, UniProt P04439, A270S/D101S/D185E/E176V/E277Q/F133L/G103R/G107R/G231S/H175R/I121M/I218V/I322F/K168Q/L105A/L300P/L318F/M331R/P208A/P217A/Q94H/R106L/R138Q/S129P/T104I/T323A/T345S/V100E/V321M/V358M). As to the kind of experiment: biochemical.

Sequence of H-2 K^d (P01887 21-119): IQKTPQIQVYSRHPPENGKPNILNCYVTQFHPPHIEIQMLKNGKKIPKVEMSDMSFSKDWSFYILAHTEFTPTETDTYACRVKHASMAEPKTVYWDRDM
Sequence of H-2 K^d (P01902 22-368): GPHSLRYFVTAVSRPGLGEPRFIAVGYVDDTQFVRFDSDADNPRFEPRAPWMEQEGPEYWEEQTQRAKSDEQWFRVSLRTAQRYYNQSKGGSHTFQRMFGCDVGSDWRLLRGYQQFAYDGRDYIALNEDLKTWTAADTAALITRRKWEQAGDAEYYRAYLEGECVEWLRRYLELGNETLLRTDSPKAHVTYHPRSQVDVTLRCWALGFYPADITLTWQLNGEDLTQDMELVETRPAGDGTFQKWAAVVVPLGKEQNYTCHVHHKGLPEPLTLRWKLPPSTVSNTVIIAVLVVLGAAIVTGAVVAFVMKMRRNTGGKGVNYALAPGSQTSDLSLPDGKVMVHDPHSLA
Sequence of H-2 D^b (P01887 21-119): as the sequence (P01887 21-119) above
Sequence of H-2 D^b (P01899 25-362): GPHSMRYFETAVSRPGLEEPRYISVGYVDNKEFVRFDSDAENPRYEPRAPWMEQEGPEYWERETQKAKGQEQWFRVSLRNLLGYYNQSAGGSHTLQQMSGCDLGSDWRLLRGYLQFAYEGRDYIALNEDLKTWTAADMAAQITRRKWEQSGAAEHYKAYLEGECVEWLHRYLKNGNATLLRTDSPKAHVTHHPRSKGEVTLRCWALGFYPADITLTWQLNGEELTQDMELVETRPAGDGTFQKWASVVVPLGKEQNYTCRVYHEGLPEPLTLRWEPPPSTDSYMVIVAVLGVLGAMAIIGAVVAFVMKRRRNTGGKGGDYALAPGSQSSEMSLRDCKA
Sequence of H-2 K^k (P01887 21-119): as the sequence (P01887 21-119) above
Sequence of H-2 K^k (P04223 22-369): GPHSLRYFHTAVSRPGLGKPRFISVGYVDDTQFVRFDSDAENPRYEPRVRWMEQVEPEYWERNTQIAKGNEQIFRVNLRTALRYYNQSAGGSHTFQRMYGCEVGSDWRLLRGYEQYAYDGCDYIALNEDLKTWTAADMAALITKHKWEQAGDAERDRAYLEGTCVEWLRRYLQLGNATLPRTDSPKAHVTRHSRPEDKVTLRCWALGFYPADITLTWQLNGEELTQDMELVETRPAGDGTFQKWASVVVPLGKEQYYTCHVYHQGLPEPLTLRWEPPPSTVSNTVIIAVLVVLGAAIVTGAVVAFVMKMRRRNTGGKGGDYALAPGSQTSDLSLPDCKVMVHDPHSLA
Sequence of H-2 D^d (P01900 whole entry, looked up): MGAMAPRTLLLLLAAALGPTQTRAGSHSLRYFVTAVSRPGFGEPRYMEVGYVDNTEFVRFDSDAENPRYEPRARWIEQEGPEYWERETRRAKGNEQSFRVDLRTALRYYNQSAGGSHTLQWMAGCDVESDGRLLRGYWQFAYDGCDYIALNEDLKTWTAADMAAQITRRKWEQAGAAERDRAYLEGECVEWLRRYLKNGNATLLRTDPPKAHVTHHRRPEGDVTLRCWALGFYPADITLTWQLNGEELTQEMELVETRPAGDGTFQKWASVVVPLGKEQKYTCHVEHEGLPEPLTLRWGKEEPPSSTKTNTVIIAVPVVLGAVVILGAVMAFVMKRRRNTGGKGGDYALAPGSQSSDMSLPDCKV

Turning to XXXXXXXCX [3064.0142], the “Normalized average relative binding affinity(ARB)” value on HLA B*1501 is given as 0.18; on HLA B*0801 it was 0.22; at HLA B*5801, 0.18; at HLA B*5802 it was 0.21; on HLA A*3001, 0.11; on HLA B*5301, 0.078. Besides, the “Normalized average relative binding affinity(ARB)” value turned out to be 0.087 on HLA B*3501; 0.37 at H-2 K^k; 0.38 on HLA B*5101; 0.11 on HLA B*1503; 0.12 on H-2 D^b; 0.11 on HLA A*3201. Also, the “Normalized average relative binding affinity(ARB)” value at H-2 D^d is on record as 0.78; at HLA A*6802 it was 0.19; at HLA B*5401, 0.74; at H-2 K^d it was 0.28.

As to XXXLXXXXX [3064.0070], the “Normalized average relative binding affinity(ARB)” value at HLA B*1501 was 0.56; on HLA B*0801, 0.61; at HLA B*5801, 0.42; at HLA B*5802, 0.50; on HLA A*3001, 0.52; at HLA B*5301, 0.17. Further, the “Normalized average relative binding affinity(ARB)” value on HLA B*3501 came out at 0.10; at H-2 K^k, 0.96; at HLA B*5101, 0.69; on HLA B*1503, 0.46; on H-2 D^b, 0.96; on HLA A*3201, 0.098. Moreover, the “Normalized average relative binding affinity(ARB)” value is recorded as 0.52 on H-2 D^d, 0.14 on HLA A*6802, 0.74 at HLA B*5401 and 0.17 on H-2 K^d.

In the case of XXXXXGXXX [3064.0106], the “Normalized average relative binding affinity(ARB)” value at HLA B*1501 was found to be 0.35; at HLA B*0801 it was 0.025; at HLA B*5801, 0.31; at HLA B*5802, 0.16; on HLA A*3001, 0.18; on HLA B*5301, 0.22. Besides, the “Normalized average relative binding affinity(ARB)” value on HLA B*3501 is recorded as 0.33; at H-2 K^k, 0.60; at HLA B*5101, 0.29; at HLA B*1503, 0.68; on H-2 D^b it was 0.76; at HLA A*3201, 0.22. Besides, the “Normalized average relative binding affinity(ARB)” value is 0.48 at H-2 D^d, 0.30 at HLA A*6802, 0.14 at HLA B*5401 and 0.30 on H-2 K^d.

For XXXXXEXXX [3064.0104], the “Normalized average relative binding affinity(ARB)” value is given as 0.30 on HLA B*1501; 0.023 at HLA B*0801; 0.80 on HLA B*5801; 0.14 on HLA B*5802; 0.059 on HLA A*3001; 0.21 on HLA B*5301. The “Normalized average relative binding affinity(ARB)” value at HLA B*3501 came to 0.21; on H-2 K^k it was 0.18; at HLA B*5101 it was 0.12; on HLA B*1503, 0.40; on H-2 D^b, 0.43; at HLA A*3201, 0.35. Moreover, the “Normalized average relative binding affinity(ARB)” value on H-2 D^d came out at 0.31; at HLA A*6802 it was 0.75; at HLA B*5401, 0.065; on H-2 K^d, 0.083.

As to XXXXXLXXX [3064.0110], the “Normalized average relative binding affinity(ARB)” value on HLA B*1501 is on record as 0.12; on HLA B*0801, 0.061; on HLA B*5801, 0.49; on HLA B*5802 it was 0.31; on HLA A*3001, 0.28; on HLA B*5301, 0.18. For the same sequence, the “Normalized average relative binding affinity(ARB)” value is 0.29 at HLA B*3501; 0.25 at H-2 K^k; 0.55 on HLA B*5101; 0.37 on HLA B*1503; 0.64 at H-2 D^b; 0.33 at HLA A*3201. The “Normalized average relative binding affinity(ARB)” value on H-2 D^d was found to be 0.54; at HLA A*6802 it was 0.16; on HLA B*5401, 0.21; on H-2 K^d, 0.34.

For XXXXVXXXX [3064.0098], the “Normalized average relative binding affinity(ARB)” value at HLA B*1501 is 0.56; on HLA B*0801 it was 0.019; on HLA B*5801, 1.0; on HLA B*5802, 0.87; at HLA A*3001, 0.35; at HLA B*5301 it was 0.18. In addition, the “Normalized average relative binding affinity(ARB)” value at HLA B*3501 amounted to 0.22; on H-2 K^k, 0.18; on HLA B*5101 it was 0.36; on HLA B*1503, 0.24; on H-2 D^b, 0.021; at HLA A*3201, 0.47. Also, the “Normalized average relative binding affinity(ARB)” value was determined as 0.25 on H-2 D^d, 0.51 on HLA A*6802, 0.042 on HLA B*5401 and 0.24 on H-2 K^d.
